In ChEMBL document CHEMBL3351878, “Carbonic Anhydrase Inhibition with Benzenesulfonamides and Tetrafluorobenzenesulfonamides Obtained via Click Chemistry” (ACS Med Chem Lett, 2014):

Experiments:
Carbonic anhydrase 9 = Carbonic anhydrase 9 (Homo sapiens, UniProt Q16790)
Carbonic anhydrase 12 = Carbonic anhydrase 12 (Homo sapiens, UniProt O43570)
Carbonic anhydrase 1 = Carbonic anhydrase 1 (Homo sapiens, UniProt P00915); assay: Inhibition of recombinant human carbonic anhydrase 1 preincubated for 15 mins by stopped-flow CO2 hydrase Assay
Carbonic anhydrase 1, sequence (P00915 whole entry): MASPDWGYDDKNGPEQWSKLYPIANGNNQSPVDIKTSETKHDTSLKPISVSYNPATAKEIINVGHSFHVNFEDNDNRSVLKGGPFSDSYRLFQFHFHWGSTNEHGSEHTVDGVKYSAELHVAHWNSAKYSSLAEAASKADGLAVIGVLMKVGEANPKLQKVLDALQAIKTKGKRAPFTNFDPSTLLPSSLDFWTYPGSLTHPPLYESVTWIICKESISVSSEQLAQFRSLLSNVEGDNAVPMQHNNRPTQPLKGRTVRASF

Carbonic anhydrase 12, sequence (O43570 whole entry): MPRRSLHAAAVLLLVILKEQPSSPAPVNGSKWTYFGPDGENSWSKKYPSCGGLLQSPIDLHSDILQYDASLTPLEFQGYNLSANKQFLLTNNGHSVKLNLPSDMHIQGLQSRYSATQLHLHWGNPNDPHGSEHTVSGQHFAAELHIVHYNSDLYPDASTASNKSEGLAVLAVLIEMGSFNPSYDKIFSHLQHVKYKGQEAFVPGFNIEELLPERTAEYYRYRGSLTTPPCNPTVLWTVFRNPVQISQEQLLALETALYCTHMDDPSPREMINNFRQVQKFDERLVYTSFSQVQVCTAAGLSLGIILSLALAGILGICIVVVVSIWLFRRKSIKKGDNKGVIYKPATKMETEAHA

SMILES	Ki (Carbonic anhydrase 9) [nM]	Ki (Carbonic anhydrase 12) [nM]	Ki (Carbonic anhydrase 1) [nM]
CCCCCc1ccc(-c2cn(-c3ccc(S(N)(=O)=O)cc3)nn2)cc1	5		
CCCCCc1ccc(-c2cn(-c3c(F)c(F)c(S(N)(=O)=O)c(F)c3F)nn2)cc1	38.9		
NS(=O)(=O)c1c(F)c(F)c(-n2cc(CCCCCl)nn2)c(F)c1F	4.5		
Cc1ccc(-c2cn(-c3ccc(S(N)(=O)=O)cc3)nn2)cc1		3.6	368
NS(=O)(=O)c1ccc(-n2cc(-c3ccccc3)nn2)cc1	25.9	6	392

Other lines, results leading:

Ki (Carbonic anhydrase 9) [nM]	Ki (Carbonic anhydrase 12) [nM]	Ki (Carbonic anhydrase 1) [nM]	SMILES
6.9			NS(=O)(=O)c1ccc(-n2cc(CCBr)nn2)cc1
6.2			NS(=O)(=O)c1ccc(-n2cc(CCCCl)nn2)cc1
5.4			NS(=O)(=O)c1ccc(-n2cc(CCCCCl)nn2)cc1
10.5			CC(C)(C)OC(=O)NCc1cn(-c2ccc(S(N)(=O)=O)cc2)nn1
12.1			NCc1cn(-c2ccc(S(N)(=O)=O)cc2)nn1
